Experimental data taken from US9963472B2, “Stable pantetheine derivatives for the treatment of pantothenate kinase associated neurodegeneration (PKAN) and methods for the synthesis of such compounds” (ACIES BIO D.O.O., priority 2013, dated 2018).

What was measured:
protein acetylation = experiment: Rescue of protein acetylation defect in PKAN models; type: cell-based
From the text: For a variety of diseases HDAC inhibitors are being used and specifically the valproic acid is currently used in diseases ranging from cancer, to epilepsy, to neurodegeneration. The disadvantage is that valproic acid has severe side effects.

[1] = system: dPANK/fbl down-regulated Drosophila-S2 cells; experiment: Rescue of cell survival in dPANK/fbl RNAi Drosophila S2 cells (PKAN cell model); type: cell-based; details: 100 μM; for rescue of cell count defect (cell survival): triplicate
From the text: The down-regulation of […] ortholog in Drosophila) using RNAi approach in Drosophila S2 cells is an established in-vitro PKAN disease model (Rana, A. et al., PNAS, 2010, 107, 6988; Siudja et al., EMBO Mol med. 2011, 3, 755; Siudeja et al., PLoS One 2012, 7, e443145). Down-regulation of dPANK/fbl by RNAi, causes a decrease in the survival of cells. […] Materials and Methods: […]

[2] = system: HEK293 cells treated with HOPAN; experiment: Rescue of HEK293 cells in HOPAN induced PKAN model; type: cell-based, human; details: 100 μM, HOPAN 0.5 mM, 4 days, HEK293, vitamin B5 deficient DMEM
Method: Similar to Drosophila-S2 cells, the PKAN disease model can also be induced using HOPAN in mammalian cell lines. Rescue efficiency of (S)-acetyl-4′-phosphopantetheine and 4′-phosphopantetheine was studied in HOPAN induced PKAN model system, namely in mammalian HEK293 cells.
Materials and Methods: HEK293 cells were cultured in vitamin B5 deficient DMEM (Thermo Scientific) supplemented with 10% dialysed FCS (Thermo Scientific) with and without HOPAN (0.5 mM) and (S)-acetyl-4′-phosphopantetheine and 4′-phosphopantetheine for 4 days. 100 μM of (S)-acetyl-4′-phosphopantetheine and 4′-phosphopantetheine was compared for its rescue efficiency.

Human HEK293 cells = experiment: Cellular toxicity (drop in cell counts) in HEK293 cells; type: cell-based; details: increasing concentrations
[3] = system: Drosophila-S2 cells treated with HOPAN; experiment: Rescue in HOPAN assay, Drosophila S2 cells; type: cell-based; details: 100 μM, HOPAN 0.5 mM, two days
Method: In an additional experiment, Drosophila-S2 cells treated with the chemical inhibitor HOPAN (hopanthenate, CAS 17097-76-6, IUPAC: calcium 4-[[(2R)-2,4-dihydroxy-3,3-dimethylbutanoyl]amino]butanoate). Cells treated with HOPAN also serve as a model for PKAN. Cells treated with HOPAN also show a reduction in cell viability.
Materials and Methods: Drosophila Schneider's S2 cells were cultured and subjected to HOPAN (0.5 mM) treatment with and without (S)-acetyl-4′-phosphopantetheine and 4′-phosphopantetheine for two days (Siudeja. K. et al., EMBO Mol Med. 2011, 3, 755). 100 μM of (S)-acetyl-4′-phosphopantetheine and 4′-phosphopantetheine was compared for its rescue efficiency.

Compound	rescue of protein acetylation defect (protein acetylation)	rescue of cell count defect (cell survival) [1]	reduction of HOPAN induced cell count defect [2]	toxicity (drop in cell counts) (Human HEK293 cells)	rescue potential compared to the other compounds [1]	rescue of HOPAN induced cell count defect [3]
CCCC(CCC)C(=O)O [valproic acid]	rescue the protein acetylation defect					
CC(C)(COP(=O)(O)O)[C@@H](O)C(=O)NCCC(=O)NCCS [4′-phosphopantetheine]		rescued the cell count defect significantly	significantly reduced the HOPAN induced cell count defect	less toxic compared to pantethine		
(S)-acetyl-4′-phosphopantetheine		rescued the cell count defect significantly	significantly reduced the HOPAN induced cell count defect	less toxic compared to pantethine	superior rescue potential as compared to pantethine and 4′-phosphopantetheine	significantly rescued
CC(/C=C/C(=O)NO)=C\[C@@H](C)C(=O)c1ccc(N(C)C)cc1 [Trichostatin A]	rescue the protein acetylation defect					
